# Results taken from the kinase profiling compilation of Christmann-Franck et al. (2016).
# Assays:
# Experiment in all cases: radiometric filter-binding kinase assay, Kinase HotSpot
# Settings in all cases: compound 0.5 µM; ATP 10 µM
# PRKCE (human) = PRKCE (human) (UniProt Q02156)
# PRKCD (human) = PRKCD (human) (UniProt Q05655)
# CAMK2D (human) = CAMK2D (human) (UniProt Q13557)
# FLT1 (human) = FLT1 (human) (UniProt P17948)
# ABL1 (human) = ABL1 (human) (UniProt P00519)
# MET (human) = MET (human) (UniProt P08581)
# IKBKE (human) = IKBKE (human) (UniProt Q14164)
# AKT3 (human) = AKT3 (human) (UniProt Q9Y243)
# CSNK1E (human) = CSNK1E (human) (UniProt P49674)
# PAK4 (human) = PAK4 (human) (UniProt O96013)
# SLK (human) = SLK (human) (UniProt Q9H2G2)
# STK33 (human) = STK33 (human) (UniProt Q9BYT3)
# CDK9 CCNK (human) = CDK9 CCNK (human) (UniProt O75909+P50750)
# Sequence of CDK9 CCNK (human) (O75909 whole entry, looked up): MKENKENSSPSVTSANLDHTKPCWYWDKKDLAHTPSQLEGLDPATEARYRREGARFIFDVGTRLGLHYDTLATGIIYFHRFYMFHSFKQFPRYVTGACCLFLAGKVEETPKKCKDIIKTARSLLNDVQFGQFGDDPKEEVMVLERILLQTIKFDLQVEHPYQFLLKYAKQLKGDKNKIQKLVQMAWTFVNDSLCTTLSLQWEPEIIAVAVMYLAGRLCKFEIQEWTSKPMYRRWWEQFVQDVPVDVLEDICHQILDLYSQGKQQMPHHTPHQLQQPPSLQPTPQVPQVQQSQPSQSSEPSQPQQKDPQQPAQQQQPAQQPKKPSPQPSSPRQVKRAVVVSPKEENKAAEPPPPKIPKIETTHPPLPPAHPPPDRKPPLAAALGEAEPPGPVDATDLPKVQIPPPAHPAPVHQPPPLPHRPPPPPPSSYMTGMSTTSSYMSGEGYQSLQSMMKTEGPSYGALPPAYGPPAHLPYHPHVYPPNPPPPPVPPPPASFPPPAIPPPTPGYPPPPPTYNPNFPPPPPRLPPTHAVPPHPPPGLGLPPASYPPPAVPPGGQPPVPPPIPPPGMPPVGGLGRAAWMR
# Sequence of CDK9 CCNK (human) (P50750 whole entry, looked up): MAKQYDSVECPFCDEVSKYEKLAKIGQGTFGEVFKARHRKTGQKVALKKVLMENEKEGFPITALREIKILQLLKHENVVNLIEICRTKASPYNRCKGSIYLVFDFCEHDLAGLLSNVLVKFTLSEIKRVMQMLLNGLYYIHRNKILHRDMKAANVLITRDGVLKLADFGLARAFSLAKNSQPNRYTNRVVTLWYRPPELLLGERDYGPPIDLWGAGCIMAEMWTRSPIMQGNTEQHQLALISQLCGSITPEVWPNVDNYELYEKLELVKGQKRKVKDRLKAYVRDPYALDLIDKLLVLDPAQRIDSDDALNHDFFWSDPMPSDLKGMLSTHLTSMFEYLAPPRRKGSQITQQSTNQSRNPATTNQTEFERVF
# FER (human) = FER (human) (UniProt P16591)
# PKN1 (human) = PKN1 (human) (UniProt Q16512)
# DYRK1A (human) = DYRK1A (human) (UniProt Q13627)
# STK11 (human) = STK11 (human) (UniProt Q15831)
# PHKG1 (human) = PHKG1 (human) (UniProt Q16816)
# DCLK2 (human) = DCLK2 (human) (UniProt Q8N568)
# Sequence of DCLK2 (human) (Q8N568 whole entry, looked up): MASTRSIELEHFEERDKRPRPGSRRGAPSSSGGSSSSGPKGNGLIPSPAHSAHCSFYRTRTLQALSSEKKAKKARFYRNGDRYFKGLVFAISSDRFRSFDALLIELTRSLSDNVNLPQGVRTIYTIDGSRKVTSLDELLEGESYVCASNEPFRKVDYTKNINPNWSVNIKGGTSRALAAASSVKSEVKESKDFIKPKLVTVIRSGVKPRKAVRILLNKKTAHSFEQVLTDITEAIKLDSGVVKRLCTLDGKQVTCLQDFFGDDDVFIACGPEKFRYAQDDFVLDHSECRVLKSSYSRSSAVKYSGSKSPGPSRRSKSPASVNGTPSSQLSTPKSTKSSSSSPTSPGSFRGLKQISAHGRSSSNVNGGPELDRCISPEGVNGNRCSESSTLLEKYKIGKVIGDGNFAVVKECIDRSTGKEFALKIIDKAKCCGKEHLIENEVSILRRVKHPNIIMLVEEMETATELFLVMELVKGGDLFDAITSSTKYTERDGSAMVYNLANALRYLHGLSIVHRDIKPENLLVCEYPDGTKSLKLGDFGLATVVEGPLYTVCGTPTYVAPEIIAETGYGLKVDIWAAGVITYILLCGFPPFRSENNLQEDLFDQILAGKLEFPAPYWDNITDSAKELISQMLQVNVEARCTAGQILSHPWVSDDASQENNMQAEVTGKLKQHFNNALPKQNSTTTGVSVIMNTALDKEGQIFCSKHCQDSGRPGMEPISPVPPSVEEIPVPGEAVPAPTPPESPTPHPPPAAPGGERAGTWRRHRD
# SGK2 (human) = SGK2 (human) (UniProt Q9HBY8)
# Sequence of SGK2 (human) (Q9HBY8 whole entry, looked up): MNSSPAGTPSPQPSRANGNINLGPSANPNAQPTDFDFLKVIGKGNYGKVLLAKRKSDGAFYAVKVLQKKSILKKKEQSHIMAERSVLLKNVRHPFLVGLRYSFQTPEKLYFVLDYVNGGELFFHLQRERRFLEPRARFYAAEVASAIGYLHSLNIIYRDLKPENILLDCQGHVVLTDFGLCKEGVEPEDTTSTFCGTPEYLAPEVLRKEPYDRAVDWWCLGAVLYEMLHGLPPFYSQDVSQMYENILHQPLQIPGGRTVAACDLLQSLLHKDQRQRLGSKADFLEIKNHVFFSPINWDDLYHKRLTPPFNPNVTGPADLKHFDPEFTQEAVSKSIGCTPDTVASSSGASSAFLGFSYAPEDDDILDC
# IKBKB (human) = IKBKB (human) (UniProt O14920)
# Sequence of IKBKB (human) (O14920 whole entry, looked up): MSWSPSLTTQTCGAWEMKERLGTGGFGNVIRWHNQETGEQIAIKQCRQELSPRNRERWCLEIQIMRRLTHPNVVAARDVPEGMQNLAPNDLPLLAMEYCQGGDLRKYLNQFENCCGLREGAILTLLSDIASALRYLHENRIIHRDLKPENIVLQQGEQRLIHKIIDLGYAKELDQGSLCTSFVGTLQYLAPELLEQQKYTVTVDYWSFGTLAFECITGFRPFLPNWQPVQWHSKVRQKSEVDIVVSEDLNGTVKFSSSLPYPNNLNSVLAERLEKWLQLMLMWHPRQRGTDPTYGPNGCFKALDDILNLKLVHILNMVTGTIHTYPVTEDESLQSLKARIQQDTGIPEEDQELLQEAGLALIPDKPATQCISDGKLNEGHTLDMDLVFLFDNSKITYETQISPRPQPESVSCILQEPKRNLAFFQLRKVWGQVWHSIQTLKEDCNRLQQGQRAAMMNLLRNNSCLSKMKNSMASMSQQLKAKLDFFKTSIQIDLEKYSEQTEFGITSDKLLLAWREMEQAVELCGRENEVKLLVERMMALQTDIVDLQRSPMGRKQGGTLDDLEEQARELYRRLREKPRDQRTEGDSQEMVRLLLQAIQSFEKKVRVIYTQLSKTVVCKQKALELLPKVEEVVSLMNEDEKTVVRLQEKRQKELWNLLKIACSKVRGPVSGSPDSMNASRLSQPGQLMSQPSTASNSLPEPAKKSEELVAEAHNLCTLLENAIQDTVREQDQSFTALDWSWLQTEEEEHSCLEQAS
# CSNK1A1 (human) = CSNK1A1 (human) (UniProt P48729)
# JAK2 JH1 JH2 (human) = JAK2 JH1 JH2 (human) (UniProt O60674)
# DSTYK (human) = DSTYK (human) (UniProt Q6XUX3)
# PRKD1 (human) = PRKD1 (human) (UniProt Q15139)
# GRK5 (human) = GRK5 (human) (UniProt P34947)
# HIPK3 (human) = HIPK3 (human) (UniProt Q9H422)
# CSNK2A1 (human) = CSNK2A1 (human) (UniProt P68400)
# CLK2 (human) = CLK2 (human) (UniProt P49760)
# ULK2 (human) = ULK2 (human) (UniProt Q8IYT8)
# Sequence of ULK2 (human) (Q8IYT8 whole entry, looked up): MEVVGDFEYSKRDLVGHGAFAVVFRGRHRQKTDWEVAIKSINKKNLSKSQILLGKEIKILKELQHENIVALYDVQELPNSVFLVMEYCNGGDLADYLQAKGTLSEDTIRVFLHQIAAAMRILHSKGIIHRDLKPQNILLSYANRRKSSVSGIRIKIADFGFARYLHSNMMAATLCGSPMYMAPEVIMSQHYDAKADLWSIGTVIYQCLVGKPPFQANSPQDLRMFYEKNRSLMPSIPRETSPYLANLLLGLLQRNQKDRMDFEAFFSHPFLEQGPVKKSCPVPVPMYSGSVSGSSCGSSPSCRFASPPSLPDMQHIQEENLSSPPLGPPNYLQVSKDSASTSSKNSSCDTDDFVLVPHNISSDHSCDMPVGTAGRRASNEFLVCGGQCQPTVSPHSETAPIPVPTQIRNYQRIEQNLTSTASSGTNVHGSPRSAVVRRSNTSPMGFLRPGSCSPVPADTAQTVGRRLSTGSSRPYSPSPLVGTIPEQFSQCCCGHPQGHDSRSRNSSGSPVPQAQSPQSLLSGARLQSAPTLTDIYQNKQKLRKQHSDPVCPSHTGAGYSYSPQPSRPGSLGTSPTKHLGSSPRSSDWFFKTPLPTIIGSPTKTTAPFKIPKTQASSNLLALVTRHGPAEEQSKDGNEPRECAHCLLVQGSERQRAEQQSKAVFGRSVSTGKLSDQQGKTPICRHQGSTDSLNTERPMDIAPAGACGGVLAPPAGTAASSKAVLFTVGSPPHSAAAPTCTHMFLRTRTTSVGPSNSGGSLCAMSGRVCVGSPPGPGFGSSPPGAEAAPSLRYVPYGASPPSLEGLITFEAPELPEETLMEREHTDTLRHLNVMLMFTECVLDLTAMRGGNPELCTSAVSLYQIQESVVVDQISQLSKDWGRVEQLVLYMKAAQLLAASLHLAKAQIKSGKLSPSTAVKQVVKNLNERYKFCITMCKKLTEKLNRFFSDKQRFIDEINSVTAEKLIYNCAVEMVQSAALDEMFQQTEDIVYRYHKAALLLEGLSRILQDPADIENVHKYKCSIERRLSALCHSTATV
# CDK5 CDK5R1 p35 (human) = CDK5 CDK5R1 p35 (human) (UniProt Q00535+Q15078)
# PRKX (human) = PRKX (human) (UniProt P51817)
# PAK7 (human) = PAK7 (human) (UniProt Q9P286)
# RPS6KB1 (human) = RPS6KB1 (human) (UniProt P23443)
# DAPK3 (human) = DAPK3 (human) (UniProt O43293)
# ACVR1B (human) = ACVR1B (human) (UniProt P36896)
# MAPK8 (human) = MAPK8 (human) (UniProt P45983)
# PRKD3 (human) = PRKD3 (human) (UniProt O94806)
# Sequence of PRKD3 (human) (O94806 whole entry, looked up): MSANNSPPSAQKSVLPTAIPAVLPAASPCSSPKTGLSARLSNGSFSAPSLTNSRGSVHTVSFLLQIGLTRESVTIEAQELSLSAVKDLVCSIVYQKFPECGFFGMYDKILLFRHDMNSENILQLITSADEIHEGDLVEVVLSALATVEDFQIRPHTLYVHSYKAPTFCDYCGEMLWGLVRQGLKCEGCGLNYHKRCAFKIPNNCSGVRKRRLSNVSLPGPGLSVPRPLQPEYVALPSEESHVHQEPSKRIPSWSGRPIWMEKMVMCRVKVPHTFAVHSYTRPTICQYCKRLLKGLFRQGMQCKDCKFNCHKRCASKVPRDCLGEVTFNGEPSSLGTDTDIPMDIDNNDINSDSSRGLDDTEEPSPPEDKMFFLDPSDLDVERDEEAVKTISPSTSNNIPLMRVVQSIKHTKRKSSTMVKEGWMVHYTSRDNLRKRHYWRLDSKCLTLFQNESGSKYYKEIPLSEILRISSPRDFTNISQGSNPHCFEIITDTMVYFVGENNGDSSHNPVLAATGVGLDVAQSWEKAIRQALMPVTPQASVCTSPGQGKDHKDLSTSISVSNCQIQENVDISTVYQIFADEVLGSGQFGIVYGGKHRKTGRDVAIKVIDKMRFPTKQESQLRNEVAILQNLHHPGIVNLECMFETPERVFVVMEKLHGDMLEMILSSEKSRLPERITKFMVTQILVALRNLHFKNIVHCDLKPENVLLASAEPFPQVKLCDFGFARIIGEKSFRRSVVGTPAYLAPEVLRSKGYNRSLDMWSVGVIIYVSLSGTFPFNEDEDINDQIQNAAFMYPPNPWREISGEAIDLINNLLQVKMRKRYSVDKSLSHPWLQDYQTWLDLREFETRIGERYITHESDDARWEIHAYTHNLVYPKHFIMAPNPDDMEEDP
# CDK4 CCND3 (human) = CDK4 CCND3 (human) (UniProt P30281+P11802)
# STK17A (human) = STK17A (human) (UniProt Q9UEE5)
# MAP3K14 (human) = MAP3K14 (human) (UniProt Q99558)
# PKN2 (human) = PKN2 (human) (UniProt Q16513)
structure (smiles),measurement,setting,value
N#C/C(=C\c1ccc(O)c(O)c1)C(=O)NCc1ccccc1,residual activity,PRKCE (human),100%
same,residual activity,PRKCD (human),91.1%
same,residual activity,CAMK2D (human),104%
same,residual activity,FLT1 (human),88%
same,residual activity,ABL1 (human),100%
same,residual activity,MET (human),98.1%
same,residual activity,IKBKE (human),105%
same,residual activity,AKT3 (human),90.8%
same,residual activity,CSNK1E (human),86.3%
same,residual activity,PAK4 (human),111%
same,residual activity,SLK (human),99.1%
same,residual activity,STK33 (human),94.9%
same,residual activity,CDK9 CCNK (human),102%
same,residual activity,FER (human),86.2%
same,residual activity,PKN1 (human),97.6%
same,residual activity,DYRK1A (human),102%
same,residual activity,STK11 (human),97.4%
same,residual activity,PHKG1 (human),92.6%
same,residual activity,DCLK2 (human),101%
same,residual activity,SGK2 (human),101%
same,residual activity,IKBKB (human),103%
same,residual activity,CSNK1A1 (human),110%
same,residual activity,JAK2 JH1 JH2 (human),98.1%
same,residual activity,DSTYK (human),91%
same,residual activity,PRKD1 (human),92.5%
same,residual activity,GRK5 (human),108%
same,residual activity,HIPK3 (human),96.6%
same,residual activity,CSNK2A1 (human),86.6%
same,residual activity,CLK2 (human),110%
same,residual activity,ULK2 (human),106%
same,residual activity,CDK5 CDK5R1 p35 (human),99.8%
same,residual activity,PRKX (human),99.6%
same,residual activity,PAK7 (human),96.1%
same,residual activity,RPS6KB1 (human),92.8%
same,residual activity,DAPK3 (human),86.5%
same,residual activity,ACVR1B (human),98%
same,residual activity,MAPK8 (human),99.1%
same,residual activity,PRKD3 (human),90.2%
same,residual activity,CDK4 CCND3 (human),98%
same,residual activity,STK17A (human),98.8%
same,residual activity,MAP3K14 (human),109%
CO[C@@H]1[C@H](N(C)C(=O)c2ccccc2)C[C@H]2O[C@]1(C)n1c3ccccc3c3c4c(c5c6ccccc6n2c5c31)C(=O)NC4,residual activity,PRKCE (human),10.7%
same,residual activity,PRKCD (human),10.9%
same,residual activity,CAMK2D (human),17.3%
same,residual activity,FLT1 (human),37%
same,residual activity,ABL1 (human),82.7%
same,residual activity,MET (human),89.4%
same,residual activity,IKBKE (human),9.85%
same,residual activity,AKT3 (human),55.1%
same,residual activity,PKN2 (human),11.4%
same,residual activity,SLK (human),30.5%
same,residual activity,STK33 (human),46.4%
same,residual activity,CDK9 CCNK (human),71%
same,residual activity,FER (human),22.4%
same,residual activity,PKN1 (human),1.37%
same,residual activity,PHKG1 (human),2.34%
same,residual activity,DCLK2 (human),101%
same,residual activity,SGK2 (human),99%
same,residual activity,IKBKB (human),97.9%
same,residual activity,CSNK1A1 (human),96.2%
same,residual activity,JAK2 JH1 JH2 (human),8.94%
same,residual activity,GRK5 (human),93.3%
same,residual activity,HIPK3 (human),93.3%
same,residual activity,CSNK2A1 (human),101%
same,residual activity,CLK2 (human),36%
same,residual activity,ULK2 (human),95.7%
same,residual activity,CDK5 CDK5R1 p35 (human),74.1%
same,residual activity,PRKX (human),55.4%
same,residual activity,PAK7 (human),90.4%
same,residual activity,RPS6KB1 (human),19.4%
same,residual activity,DAPK3 (human),82.6%
same,residual activity,ACVR1B (human),102%
same,residual activity,MAPK8 (human),88.3%
same,residual activity,STK17A (human),62.9%
same,residual activity,MAP3K14 (human),113%
C[C@@H]1CCN(C(=O)CC#N)C[C@@H]1N(C)c1ncnc2[nH]ccc12,residual activity,PRKCE (human),98.5%
same,residual activity,PRKCD (human),75.3%
same,residual activity,CAMK2D (human),98.2%
same,residual activity,FLT1 (human),101%
same,residual activity,ABL1 (human),101%
same,residual activity,MET (human),86.7%
same,residual activity,IKBKE (human),94.8%
same,residual activity,AKT3 (human),85.8%
same,residual activity,CSNK1E (human),101%
same,residual activity,PAK4 (human),99.2%
same,residual activity,SLK (human),89.2%
same,residual activity,STK33 (human),97.8%
same,residual activity,CDK9 CCNK (human),102%
same,residual activity,FER (human),104%
same,residual activity,PKN1 (human),16.5%
same,residual activity,DYRK1A (human),102%
same,residual activity,STK11 (human),104%
same,residual activity,PHKG1 (human),90%
same,residual activity,DCLK2 (human),96.6%
same,residual activity,SGK2 (human),104%
same,residual activity,IKBKB (human),88.2%
same,residual activity,CSNK1A1 (human),99.7%
same,residual activity,DSTYK (human),98.4%
same,residual activity,PRKD1 (human),97.3%
same,residual activity,GRK5 (human),107%
same,residual activity,HIPK3 (human),100%
same,residual activity,CSNK2A1 (human),104%
same,residual activity,CLK2 (human),85.8%
same,residual activity,ULK2 (human),92%
same,residual activity,CDK5 CDK5R1 p35 (human),99.5%
same,residual activity,PRKX (human),110%
same,residual activity,PAK7 (human),93.6%
same,residual activity,RPS6KB1 (human),103%
same,residual activity,DAPK3 (human),106%
same,residual activity,ACVR1B (human),99.8%
same,residual activity,MAPK8 (human),108%
same,residual activity,PRKD3 (human),89.8%
same,residual activity,CDK4 CCND3 (human),99.9%
same,residual activity,STK17A (human),106%
same,residual activity,MAP3K14 (human),107%
CN(C)S(=O)(=O)c1ccc2c(c1)/C(=C/c1cc3c([nH]1)CCCC3)C(=O)N2,residual activity,PRKCE (human),94.6%
same,residual activity,PRKCD (human),95.5%
same,residual activity,CAMK2D (human),73.2%
same,residual activity,FLT1 (human),84.9%
same,residual activity,ABL1 (human),57.3%
same,residual activity,MET (human),92.2%
same,residual activity,IKBKE (human),87.9%
same,residual activity,AKT3 (human),96.7%
same,residual activity,CSNK1E (human),104%
same,residual activity,PKN2 (human),84.3%
same,residual activity,PAK4 (human),97.6%
same,residual activity,SLK (human),23.4%
same,residual activity,STK33 (human),77.2%
same,residual activity,CDK9 CCNK (human),96.9%
same,residual activity,FER (human),51.8%
same,residual activity,PKN1 (human),91.2%
same,residual activity,DYRK1A (human),81.1%
same,residual activity,STK11 (human),90.4%
same,residual activity,PHKG1 (human),72.4%
same,residual activity,DCLK2 (human),72%
same,residual activity,SGK2 (human),101%
same,residual activity,IKBKB (human),107%
same,residual activity,CSNK1A1 (human),91.7%
same,residual activity,JAK2 JH1 JH2 (human),46.1%
same,residual activity,DSTYK (human),96%
same,residual activity,PRKD1 (human),102%
same,residual activity,GRK5 (human),95.3%
same,residual activity,HIPK3 (human),107%
same,residual activity,CSNK2A1 (human),105%
same,residual activity,CLK2 (human),32.1%
same,residual activity,ULK2 (human),26.3%
same,residual activity,CDK5 CDK5R1 p35 (human),76.9%
same,residual activity,PRKX (human),98.1%
same,residual activity,RPS6KB1 (human),96.5%
same,residual activity,DAPK3 (human),94.4%
same,residual activity,ACVR1B (human),105%
same,residual activity,MAPK8 (human),91.1%
same,residual activity,PRKD3 (human),90.4%
same,residual activity,CDK4 CCND3 (human),99.1%
same,residual activity,MAP3K14 (human),94.6%
Cc1cccc(-c2nc(C(C)(C)C)[nH]c2-c2ccc3c(c2)OCO3)n1,residual activity,PRKCE (human),97.9%
same,residual activity,PRKCD (human),104%
same,residual activity,CAMK2D (human),100%
same,residual activity,FLT1 (human),84.3%
same,residual activity,ABL1 (human),100%
same,residual activity,MET (human),82.7%
same,residual activity,IKBKE (human),91.8%
same,residual activity,AKT3 (human),94.7%
same,residual activity,CSNK1E (human),71.5%
same,residual activity,PKN2 (human),93.5%
same,residual activity,PAK4 (human),77.5%
same,residual activity,SLK (human),108%
same,residual activity,STK33 (human),89%
same,residual activity,CDK9 CCNK (human),106%
same,residual activity,FER (human),85.4%
same,residual activity,PKN1 (human),108%
same,residual activity,DYRK1A (human),98.4%
same,residual activity,STK11 (human),91.3%
same,residual activity,PHKG1 (human),87.6%
same,residual activity,DCLK2 (human),101%
same,residual activity,SGK2 (human),100%
same,residual activity,IKBKB (human),105%
same,residual activity,CSNK1A1 (human),96.5%
same,residual activity,DSTYK (human),89.1%
same,residual activity,PRKD1 (human),92.3%
same,residual activity,GRK5 (human),108%
same,residual activity,CSNK2A1 (human),98%
same,residual activity,CLK2 (human),95.2%
same,residual activity,ULK2 (human),75.4%
same,residual activity,CDK5 CDK5R1 p35 (human),98.5%
same,residual activity,PRKX (human),95%
same,residual activity,PAK7 (human),92.7%
same,residual activity,RPS6KB1 (human),95.9%
same,residual activity,DAPK3 (human),97%
same,residual activity,ACVR1B (human),31%
same,residual activity,MAPK8 (human),95.7%
same,residual activity,PRKD3 (human),89.3%
same,residual activity,CDK4 CCND3 (human),102%
same,residual activity,STK17A (human),84.1%
same,residual activity,MAP3K14 (human),109%
